From PubChem BioAssay (NCI)
Several values for one entry are separate records, joined by “and”; a condition that tells them apart may be missing. Equal entries are not always repeated.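 Each compound was tested at five concentrations against cells in 96-well plates for 48 hours. Here, GI50 denotes the concentration required for 50% inhibition of growth. TGI: total growth inhibition.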

What was measured:
Experiment in all cases: NCI-60 cell line screen, 48 h
DU-145 prostate = system: DU-145 prostate
MALME-3M melanoma = system: MALME-3M melanoma
NCI-H23 lung = system: NCI-H23 lung
OVCAR-5 ovarian = system: OVCAR-5 ovarian
RPMI-8226 leukemia = system: RPMI-8226 leukemia
SK-MEL-5 melanoma = system: SK-MEL-5 melanoma
SNB-75 CNS = system: SNB-75 CNS
T-47D breast = system: T-47D breast
U251 CNS = system: U251 CNS
UACC-257 melanoma = system: UACC-257 melanoma

SMILES | GI50 (DU-145 prostate) [µM] | TGI (DU-145 prostate) | GI50 (MALME-3M melanoma) [µM] | TGI (MALME-3M melanoma) [µM] | GI50 (NCI-H23 lung) [µM] | TGI (NCI-H23 lung) | GI50 (OVCAR-5 ovarian) [µM] | TGI (OVCAR-5 ovarian) | GI50 (RPMI-8226 leukemia) [µM] | TGI (RPMI-8226 leukemia) | GI50 (SK-MEL-5 melanoma) [µM] | TGI (SK-MEL-5 melanoma) | GI50 (SNB-75 CNS) [µM] | TGI (SNB-75 CNS) [µM] | GI50 (T-47D breast) [µM] | TGI (T-47D breast) [µM] | GI50 (U251 CNS) [µM] | TGI (U251 CNS) | GI50 (UACC-257 melanoma) [µM] | TGI (UACC-257 melanoma)
N#C/C(=C\c1cccnc1)c1nc2ccccc2o1 | > 100 | > 100 µM | 21.8 | > 100 | > 100 | > 100 µM | > 100 | > 100 µM | > 100 | > 100 µM | > 100 | > 100 µM | > 100 | > 100 | > 100 | > 100 | > 100 | > 100 µM | > 100 | > 100 µM
NC(=S)N/N=C\c1nccc2c(C(F)(F)C(F)(F)C(F)(F)F)cccc12 | 0.11 | 2.92 µM | 0.189 | 1.43 | 0.422 | 12.4 µM | 0.123 | 16.8 µM | 0.264 |  | 0.0996 | 0.563 µM | 0.124 | 2.87 | 0.0369 | 1.51 | 0.0569 | 1.25 µM | 0.12 | 0.575 µM
CCC(=O)OC1=CN2C(=NC(c3ccc(N)cc3)=CC2c2cc(OC)c(OC)c(OC)c2)S1 (stereo not drawn) | 3.58 | 13.1 µM | 4 | 16.3 | 5.82 | 35.6 µM | 4.04 | 17.1 µM | 2.44 | 10 µM | 2.89 | 12 µM | 5.12 | 23.3 | 4.01 | 30.8 | 3.49 | 13.8 µM | 5.96 | 19.9 µM
O=[N+]([O-])c1ccc(NC(=S)N/N=C(\c2ccccc2)c2ccccn2)cc1 |  | 2.84 µM and 4.03 µM |  | 3.52 | 1.71 | 3.53 µM and 13.3 µM | 0.0772 | 2.58 µM and 4.58 µM | 1.2 | 5.6 µM and > 27 µM |  | 2.53 µM and 2.74 µM |  | 3.76 |  | 3.03 |  | 3 µM and 2.68 µM | 0.0225 | 2.06 µM and 3.26 µM
C=C1C(=O)O[C@H]2[C@H]1CC/C(COC(=O)/C=C/c1c[nH]c3ccccc13)=C\CC[C@@]1(C)O[C@@H]21 | 0.393 | 1.43 µM | 0.283 | 0.828 | 1.25 | 4.32 µM | 0.315 | 1.38 µM | 0.0332 | 0.123 µM | 0.208 | 0.516 µM | 0.17 | 0.428 | 0.205 | 0.626 | 0.212 | 0.528 µM | 0.354 | 1.46 µM
CN(C)c1ccc(N=C(C#N)c2nc(N)nc(N3CCN(c4ccccc4)CC3)n2)cc1 | 11.6 | > 28.1 µM | 0.0338 | 1.16 | > 50 | > 50 µM | > 50 | > 50 µM | > 26.8 | > 50 µM | 24.5 | > 47.5 µM | 6.9 | 25.6 | > 50 | > 50 | > 35.1 | > 50 µM | 28.1 | > 44.2 µM
CC[C@H](C)[C@H](NC(=O)c1nccn1C)C(=O)N(C)[C@H](C[C@@H](OC(C)=O)c1nc(C(=O)N[C@@H](Cc2ccccc2)C[C@H](C)C(=O)OC)cs1)C(C)C | 1.3 | > 33.3 µM | 5.87 | > 33.3 | 1.36 | > 33.3 µM | 2.23 | > 33.3 µM | 0.531 | 12.1 µM | 0.668 | 3.67 µM | 0.199 | > 33.3 | > 33.3 | > 33.3 | 1.38 | > 33.3 µM |  | 
CCCNc1cccc(-n2ncc3c(N/N=C/c4ccncc4)ncnc32)c1 | > 25 | > 25 µM | > 7.75 | > 25 | > 25 | > 25 µM | > 25 | > 25 µM | > 25 | > 25 µM | 1.64 | > 25 µM | 0.934 | > 19.4 | > 25 | > 25 | 17 | > 25 µM | > 25 | > 25 µM
COc1cccc2ccc3c(c12)C(=O)OC31CCc2c(C)cccc21 (stereo not drawn) |  | > 100 µM |  | > 46.4 |  | > 46.4 µM |  | > 46.4 µM |  | 21.5 µM |  | 19.5 µM |  | 45.1 |  | > 100 |  | > 46.4 µM |  | > 100 µM
C=C1C[C@@H]2[C@H](CC[C@]3(C)C(=O)CC[C@@H]23)[C@@]2(C)C=CC(=O)C=C12 | > 65.8 | > 100 µM | > 43.9 | > 73.4 | 16.5 | 44.3 µM | 37.3 | > 100 µM | 19.7 | > 56.6 µM | 7.5 | 33.7 µM | 30 | > 100 | > 51.6 | > 100 | 23.5 | > 70.5 µM |  | 
O=c1[nH]cnc2nc(-c3ccc(N(CCCl)CCCl)cc3)[nH]c12 | 15.9 | > 100 µM | 33 | > 100 | 31.7 | > 100 µM | 30.1 | > 100 µM | > 100 | > 100 µM | 3.47 | > 100 µM | 18.1 | 74.2 | 2.85 | > 100 | 20.1 | > 100 µM |  | 
O=C(O)c1ccc2cccnc2c1O | 0.828 | 42.3 µM | 1.84 | 4.41 | 1.05 | 29.1 µM | 2.14 | > 100 µM | 0.93 | > 21.1 µM |  |  | 1.51 | > 100 | 2.18 | 9.9 | 0.672 | > 59.4 µM | 2.02 | 5.29 µM
CC1(C)N=C(N)N=C(N)N1c1ccc(OCCCCNC(=O)c2ccc(S(=O)(=O)F)cc2)c(Cl)c1 | 8.16 | > 100 µM | > 100 | > 100 |  |  | > 100 | > 100 µM | 6.39 | > 100 µM | 5.19 | > 100 µM | 16.5 | > 100 | > 100 | > 100 | 5.65 | > 100 µM | 6.36 | > 100 µM
